In US20230391772A1, “METHODS AND COMPOSITIONS FOR TARGETED PROTEIN DEGRADATION” (Ranok Therapeutics (Hangzhou) Co. Ltd., priority 2020, published 2023) one finds DC50, IC50 and EC50 data, which are given here for eleven molecules.

SMILES strings stand for the structures.

Test [1] deals with T1, KRAS(G12C) (Homo sapiens, UniProt P01116, G12C). Description: KRAS(G12C) Western blot protein degradation assay in LU65A cells. Conditions: 6 hr. Format: cell-based. Further details: LU65A human lung cancer cell line, which expresses KRAS(G12C); host or cells: LU65A. The essentials: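 KRAS levels read by fluorescent Western blot (β-actin as reference) on BCA-normalized lysates. Exposure to a compound concentration range at 37 °C lasted 6 hr in LU65A and 48 hr in MIA PaCa-2; DC50 taken as half-maximal degradation concentration.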
T1 sequence (P01116 1-188 isoform P01116-2 G12C): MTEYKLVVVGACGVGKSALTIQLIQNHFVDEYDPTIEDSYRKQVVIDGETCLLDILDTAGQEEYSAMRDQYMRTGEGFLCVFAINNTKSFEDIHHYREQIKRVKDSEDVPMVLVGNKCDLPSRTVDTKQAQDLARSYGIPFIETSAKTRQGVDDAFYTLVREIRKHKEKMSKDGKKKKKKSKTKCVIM

In test [2] the target is T1, KRAS(G12C). Description: KRAS(G12C)/SOS1 homogeneous time-resolved fluorescence (HTRF) assay. More on the design: purchased Cisbio 63ADK000CB16PEG. Conditions: absence of GTP, 4° C. for 3 hr, read-out: KRAS (G12C) binding. The essentials:
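Three-hour incubation at 4 °C of 3-fold compound dilutions (lowest 1.02 nM) with KRAS(G12C), SOS1 and detection reagents, GTP absent. Disruption of the KRAS(G12C)/SOS1 complex detected by time-resolved fluorescence.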
On the technique in general: TR-FRET usually uses a lanthanide donor and a delayed reading to cut background.

Test [3] relates to MIA PaCa-2 human pancreatic carcinoma. Put plainly: MIA PaCa-2 CCK-8 proliferation assay. Format: cell-based. The conditions noted are these: Homo sapiens, MIA PaCa-2, 72 h, MIA PaCa-2 cells. In outline:
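Percent inhibition derived from CCK-8 optical signal, normalised between DMSO-only cells (0%) and cell-free medium containing DMSO as background. Cells: MIA PaCa-2 carrying 2 KRAS(G12C) copies; NCI-H358, NCI-H23 carrying 1 copy apiece. Concentrations spanned 1.02 nM–20 μM in threefold increments.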
On the technique in general: Tetrazolium dyes change colour on reduction, which living cells bring about.

The DC50 is the midpoint of the concentration-degradation curve. Higher therefore signals degradation only at high concentration. Usually EC50 stands for the concentration needed to bring the measured effect to its halfway point.

At KRAS(G12C) [1], `C=CC(=O)N1CCN(c2nc(OC[C@@H]3CC[C@H](CN4CCN(C(=O)C5CCN(Cc6ccc(-n7c(O)nnc7-c7cc(C)c(O)cc7O)cc6)CC5)CC4)N3C)nc3c2CCN(c2cccc4ccccc24)C3)C[C@@H]1CC#N` [Compound 256, 2-[(2S)-4-(2-{[(2S,5R)-5-({4-[1-({4-[3-(2,4-dihydroxy-5-methylphenyl)-5-hydroxy-1,2,4-triazol-4-yl]phenyl}methyl)piperidine-4-carbonyl]piperazin-1-yl}methyl)-1-methylpyrrolidin-2-yl]methoxy}-7-(naphthalen-1-yl)-5H,6H,8H-pyrido[3,4-d]pyrimidin-4-yl)-1-(prop-2-enoyl)piperazin-2-yl]acetonitrile] returned a DC50 of over 1000 nM. Besides, the IC50 on KRAS(G12C) [2] was under 100 nM. The molecule also displayed an EC50 in test [3] of over 1000 nM.
At KRAS(G12C) [1], `C=CC(=O)N1CCN(c2nc(OC[C@@H]3C[C@H](N4CCC5(CCN(Cc6ccc(-n7c(C(=O)NCC)nnc7-c7cc(C(C)C)c(O)cc7O)cc6)CC5)CC4)CN3C)nc3c2CCN(c2cccc4cccc(Cl)c24)C3)C[C@@H]1CC#N` [Compound 259, 4-[4-({9-[(3S,5S)-5-({[7-(8-chloronaphthalen-1-yl)-4-[(3S)-3-(cyanomethyl)-4-(prop-2-enoyl)piperazin-1-yl]-5H,6H,8H-pyrido[3,4-d]pyrimidin-2-yl]oxy}methyl)-1-methylpyrrolidin-3-yl]-3,9-diazaspiro[5.5]undecan-3-yl}methyl)phenyl]-5-(2,4-di hydroxy-5-isopropylphenyl)-N-ethyl-1,2,4-triazole-3-carboxamide] gave a DC50 of under 100 nM. Also, the IC50 at KRAS(G12C) [2] is under 100 nM. In test [3], this molecule registered an EC50 of under 100 nM.
`C=CC(=O)N1CCN(c2nc(OC[C@@H]3C[C@H](N4CCN(C(=O)C5CCN(Cc6ccc(-n7c(C(=O)NCC(F)(F)F)nnc7-c7cc(C(C)C)c(O)cc7O)cc6)CC5)CC4)CN3C)nc3c2CCN(c2cccc4cccc(Cl)c24)C3)C[C@@H]1CC#N` [Compound 261, 4-{4-[(4-{4-[(3S,5S)-5-({[7-(8-chloronaphthalen-1-yl)-4-[(3S)-3-(cyanomethyl)-4-(prop-2-enoyl)piperazin-1-yl]-5H,6H,8H-pyrido[3,4-d]pyrimidin-2-yl]oxy}methyl)-1-methylpyrrolidin-3-yl]piperazine-1-carbonyl}piperidin-1-yl)methyl]phenyl}-5-(2,4-dihydroxy-5-isopropylphenyl)-N-(2,2,2-trifluoroethyl)-1,2,4-triazole-3-carboxamide] gave a DC50 on KRAS(G12C) [1] of 100 to 1000 nM. At KRAS(G12C) [2], the IC50 was under 100 nM. This molecule also gave an EC50 in test [3] of under 100 nM.
Regarding `C=CC(=O)N1CCN(c2nc(OC[C@@H]3CC[C@H](CN4CCN(Cc5ccc(-n6c(C(=O)NCC)nnc6-c6cc(C(C)C)c(O)cc6O)cc5)CC4)N3C)nc3c2CCN(c2cccc4cccc(Cl)c24)C3)C[C@@H]1CC#N` [Compound 263, 4-{4-[(4-{[(2R,5S)-5-({[7-(8-chloronaphthalen-1-yl)-4-[(3S)-3-(cyanomethyl)-4-(prop-2-enoyl)piperazin-1-yl]-5H,6H,8H-pyrido[3,4-d]pyrimidin-2-yl]oxy}methyl)-1-methylpyrrolidin-2-yl]methyl}piperazin-1-yl)methyl]phenyl}-5-(2,4-dihydroxy-5-isopropylphenyl)-N-ethyl-1,2,4-triazole-3-carboxamide], the DC50 on KRAS(G12C) [1] is over 1000 nM. Also, the IC50 at KRAS(G12C) [2] is under 100 nM. For the same molecule, in test [3], the EC50 was under 100 nM.
`C=CC(=O)N1CCN(c2nc(OC[C@@H]3C[C@H](N4CCN(C(=O)C5CCN(Cc6ccc(-n7c(O)nnc7-c7cc(C(C)C)c(O)cc7O)cc6)CC5)CC4)CN3C)nc3c2CCN(c2cccc4cccc(Cl)c24)C3)C[C@@H]1CC#N` [Compound 264, 2-[(2S)-4-[7-(8-chloronaphthalen-1-yl)-2-{[(2S,4S)-4-{4-[1-({4-[3-(2,4-dihydroxy-5-isopropylphenyl)-5-hydroxy-1,2,4-triazol-4-yl]phenyl}methyl)piperidine-4-carbonyl]piperazin-1-yl}-1-methylpyrrolidin-2-yl]methoxy}-5H,6H,8H-pyrido[3,4-d]pyrimidin-4-yl]-1-(prop-2-enoyl)piperazin-2-yl]acetonitrile] came in with a DC50 at KRAS(G12C) [1] of 100 to 1000 nM. The IC50 at KRAS(G12C) [2] was under 100 nM. This molecule also showed an EC50 in test [3] of 100 to 1000 nM.
Take `C=CC(=O)N1CCN(c2nc(OC[C@@H]3C[C@H](N4CCN(C(=O)C5CCN(Cc6ccc(-n7c(O)nnc7-c7cc(C)c(O)cc7O)cc6)CC5)CC4)CN3C)nc3c2CCN(c2cccc4cccc(Cl)c24)C3)C[C@@H]1CC#N` [Compound 265, 2-[(2S)-4-[7-(8-chloronaphthalen-1-yl)-2-{[(2S,4S)-4-{4-[1-({4-[3-(2,4-dihydroxy-5-methylphenyl)-5-hydroxy-1,2,4-triazol-4-yl]phenyl}methyl)piperidine-4-carbonyl]piperazin-1-yl}-1-methylpyrrolidin-2-yl]methoxy}-5H,6H,8H-pyrido[3,4-d]pyrimidin-4-yl]-1-(prop-2-enoyl)piperazin-2-yl]acetonitrile]: the DC50 on KRAS(G12C) [1] was over 1000 nM. The IC50 on KRAS(G12C) [2] is under 100 nM. Moreover, in test [3], the EC50 was over 1000 nM.
With `C=CC(=O)N1CCN(c2nc(OCCN3CCN(C(=O)C4CCN(Cc5ccc(-n6c(C(=O)NCC(F)(F)F)nnc6-c6cc(C(C)C)c(O)cc6O)cc5)CC4)C[C@H]3CN(C)C)nc3c2CCN(c2cccc4cccc(Cl)c24)C3)C[C@@H]1CC#N` [Compound 266, 4-(4-((4-((R)-4-(2-((4-((S)-4-acryloyl-3-(cyanomethyl)piperazin-1-yl)-7-(8-chloronaphthalen-1-yl)-5,6,7,8-tetrahydropyrido[3,4-d]pyrimidin-2-yl)oxy)ethyl)-3-((dimethylamino)methyl)piperazine-1-carbonyl)piperidin-1-yl)methyl)phenyl)-5-(2,4-dihydroxy-5-isopropylphenyl)-N-(2,2,2-trifluoroethyl)-4H-1,2,4-triazole-3-carboxamide], the DC50 at KRAS(G12C) [1] lay within 100 to 1000 nM. At KRAS(G12C) [2], the IC50 is 100 to 1000 nM. This molecule also gave an EC50 in test [3] of over 1000 nM.
On to `C=CC(=O)N1CCN(c2nc(OC[C@@H]3CC[C@H](CN4CCN(Cc5ccc(-n6c(O)nnc6-c6cc(C(C)C)c(O)cc6O)cc5)CC4)N3C)nc3c2CCN(c2cccc4ccc(F)c(Cl)c24)C3)C[C@@H]1CC#N` [Compound 268, 2-[(2S)-4-[7-(8-chloro-7-fluoronaphthalen-1-yl)-2-{[(2S,5R)-5-{[4-({4-[3-(2,4-dihydroxy-5-isopropylphenyl)-5-hydroxy-1,2,4-triazol-4-yl]phenyl}methyl)piperazin-1-yl]methyl}-1-methylpyrrolidin-2-yl]methoxy}-5H,6H,8H-pyrido[3,4-d]pyramidin-4-yl]-1-(prop-2-enoyl)piperazin-2-yl]acetonitrile], for which the DC50 on KRAS(G12C) [1] is over 1000 nM. Also, on KRAS(G12C) [2], the IC50 is under 100 nM. In test [3], this molecule had an EC50 of 100 to 1000 nM.
Molecule `C=CC(=O)N1CCN(c2nc(OC[C@@H]3CC[C@H](CN4CCN(C(=O)C5CCN(Cc6ccc(-n7c(C(=O)NCC)nnc7-c7cc(C(C)C)c(O)cc7O)cc6)CC5)CC4)N3C)nc3c2CCN(c2cccc4ccc(F)c(Cl)c24)C3)C[C@@H]1CC#N` [Compound 269, 4-(4-{[4-(4-{[(2R,5S)-5-({[7-(8-chloro-7-fluoronaphthalen-1-yl)-4-[(3S)-3-(cyanomethyl)-4-(prop-2-enoyl)piperazin-1-yl]-5H,6H,8H-pyrido[3,4-d]pyrimidin-2-yl]oxy}methyl)-1-methylpyrrolidin-2-yl]methyl}piperazine-1-carbonyl)piperidin-1-yl]methyl}phenyl)-5-(2,4-dihydroxy-5-isopropylphenyl)-N-ethyl-1,2,4-triazole-3-carboxamide] showed a DC50 at KRAS(G12C) [1] of over 1000 nM. The IC50 at KRAS(G12C) [2] is under 100 nM. In test [3], this molecule returned an EC50 of under 100 nM.
In turn, `C=CC(=O)N1CCN(c2nc(OC[C@@H]3CC[C@H](CN4CCN(C(=O)C5CCN(Cc6ccc(-n7c(C(=O)NCC)nnc7-c7cc(C(C)C)c(O)cc7O)cc6)CC5)CC4)N3C)nc3c2CCN(c2cccc4cccc(C)c24)C3)C[C@@H]1CC#N` [Compound 274, 4-(4-{[4-(4-{[(2R,5S)-5-[({4-[(3S)-3-(cyanomethyl)-4-(prop-2-enoyl)piperazin-1-yl]-7-(8-methylnaphthalen-1-yl)-5H,6H,8H-pyrido[3,4-d]pyrimidin-2-yl}oxy)methyl]-1-methylpyrrolidin-2-yl]methyl}piperazine-1-carbonyl)piperidin-1-yl]methyl}phenyl)-5-(2,4-dihydroxy-5-isopropylphenyl)-N-ethyl-1,2,4-triazole-3-carboxamide] returned a DC50 on KRAS(G12C) [1] of over 1000 nM. Moreover, at KRAS(G12C) [2], the IC50 was under 100 nM. In addition, the EC50 in test [3] fell in the range of 100 to 1000 nM.
Turning to `C=CC(=O)N1CCN(c2nc(OC[C@@H]3C[C@H](N4CCN(CC5CCN(Cc6ccc(-n7c(O)nnc7-c7cc(C(C)C)c(O)cc7O)cc6)CC5)CC4)CN3C)nc3c2CCN(c2cccc4cccc(Cl)c24)C3)C[C@@H]1CC#N` [Compound 275, 2-[(2S)-4-[7-(8-chloronaphthalen-1-yl)-2-{[(2S,4S)-4-(4-{[1-({4-[3-(2,4-dihydroxy-5-isopropylphenyl)-5-hydroxy-1,2,4-triazol-4-yl]phenyl}methyl)piperidin-4-yl]methyl}piperazin-1-yl)-1-methylpyrrolidin-2-yl]methoxy}-5H,6H,8H-pyrido[3,4-d]pyrimidin-4-yl]-1-(prop-2-enoyl)piperazin-2-yl]acetonitrile], on KRAS(G12C) [1], the DC50 was 100 to 1000 nM. The IC50 on KRAS(G12C) [2] is under 100 nM. In test [3], this molecule registered an EC50 of 100 to 1000 nM.
